Publication PMC10023787, “Trio-pharmacophore DNA-encoded chemical library for simultaneous selection of fragments and linkers” (Nature Communications, 2023)

Experiments:
MMP-2 = target: T1, MMP-2 (Homo sapiens, UniProt P08253); test: MMP-2 inhibition assay (fluorogenic peptide substrate); type: biochemical; conditions: for remaining activity (%): MMP-2; for IC50: mean ± SE, n.d: not detected, Fig. 5d unit inferred, µM, read-out: IC50
T1 construct: purchased Sino Biological 10082-HNAH
T1 sequence (P08253 110-660): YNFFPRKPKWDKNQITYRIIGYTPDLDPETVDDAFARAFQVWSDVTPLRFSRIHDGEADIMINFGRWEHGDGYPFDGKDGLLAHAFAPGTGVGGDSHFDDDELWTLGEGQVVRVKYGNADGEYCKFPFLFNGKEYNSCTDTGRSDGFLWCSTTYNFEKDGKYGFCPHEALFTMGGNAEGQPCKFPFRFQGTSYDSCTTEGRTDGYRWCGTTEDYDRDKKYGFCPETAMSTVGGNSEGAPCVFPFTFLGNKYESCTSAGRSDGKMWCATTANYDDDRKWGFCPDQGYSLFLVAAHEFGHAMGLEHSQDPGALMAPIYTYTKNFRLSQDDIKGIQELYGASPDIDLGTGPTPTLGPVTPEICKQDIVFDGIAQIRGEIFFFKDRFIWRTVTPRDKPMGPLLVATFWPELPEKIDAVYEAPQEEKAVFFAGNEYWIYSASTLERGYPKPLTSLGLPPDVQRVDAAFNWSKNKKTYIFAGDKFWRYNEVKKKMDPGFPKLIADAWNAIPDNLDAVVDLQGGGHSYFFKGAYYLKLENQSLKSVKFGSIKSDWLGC
Summary of the method: (§1)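 Human proMMP-2 and proMMP-9 were activated with 1 mM APMA for 2 h at 37 °C, then used at 6.5 nM (MMP-2) or 10 nM (MMP-9) final in Tris/NaCl/CaCl2/Brij 35 buffer, pH 7.5. After 30 min preincubation with compound at RT, 25 μM FRET peptide substrate was added and fluorescence (ex 280/em 360 nm) followed for 30 min. IC50 came from logistic fits of Vmax.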

MMP-9 = target: T2, MMP-9 (Homo sapiens, UniProt P14780); test: MMP-9 inhibition assay (fluorogenic peptide substrate); type: biochemical; set-up: remaining enzyme activity (% of control): scale not given here; conditions: for remaining enzyme activity (% of control): MMP-9; for IC50: mean ± SE, n.d: not detected, Fig. 5e prints no unit, µM, read-out: IC50
T2 construct: purchased Sino Biological 10327-HNAH
T2 sequence (P14780 107-707 limits assumed): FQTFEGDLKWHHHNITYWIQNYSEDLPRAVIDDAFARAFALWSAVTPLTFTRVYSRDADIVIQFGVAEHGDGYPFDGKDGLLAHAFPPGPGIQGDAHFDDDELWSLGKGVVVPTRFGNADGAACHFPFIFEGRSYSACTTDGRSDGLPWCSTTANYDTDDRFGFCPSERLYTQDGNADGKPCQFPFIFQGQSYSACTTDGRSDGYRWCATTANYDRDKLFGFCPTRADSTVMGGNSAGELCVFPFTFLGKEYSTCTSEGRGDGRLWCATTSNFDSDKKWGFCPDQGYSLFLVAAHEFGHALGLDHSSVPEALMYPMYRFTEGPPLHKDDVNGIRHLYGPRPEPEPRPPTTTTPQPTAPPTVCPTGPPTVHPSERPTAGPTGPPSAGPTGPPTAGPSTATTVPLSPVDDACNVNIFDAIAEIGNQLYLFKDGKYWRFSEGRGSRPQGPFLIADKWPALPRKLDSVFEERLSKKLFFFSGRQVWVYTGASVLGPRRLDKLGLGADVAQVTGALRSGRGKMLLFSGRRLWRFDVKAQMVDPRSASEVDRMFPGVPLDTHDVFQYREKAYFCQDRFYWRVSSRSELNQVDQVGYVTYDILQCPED
Summary of the method: as §1

Row | remaining activity (%) (MMP-2; concentration 0.0156 µM) | remaining activity (%) (MMP-2; concentration 0.08 µM) | remaining activity (%) (MMP-2; concentration 0.39 µM) | remaining activity (%) (MMP-2; concentration 1.95 µM) | IC50 (MMP-2) | remaining enzyme activity (% of control) (MMP-9; concentration 0.08 µM) | remaining enzyme activity (% of control) (MMP-9; concentration 1.95 µM) | IC50 (MMP-9) | remaining activity (%) (MMP-2; concentration 0.12 µM) | remaining activity (%) (MMP-2; concentration 0.49 µM) | remaining activity (%) (MMP-2; concentration 7.81 µM) | remaining activity (%) (MMP-2; concentration 31.25 µM) | remaining activity (%) (MMP-2; concentration 125.00 µM) | remaining activity (%) (MMP-2; concentration 500.00 µM) | remaining enzyme activity (% of control) (MMP-9; concentration 0.12 µM) | remaining enzyme activity (% of control) (MMP-9; concentration 0.49 µM) | remaining enzyme activity (% of control) (MMP-9; concentration 7.81 µM) | remaining enzyme activity (% of control) (MMP-9; concentration 31.25 µM) | remaining enzyme activity (% of control) (MMP-9; concentration 125.00 µM) | remaining enzyme activity (% of control) (MMP-9; concentration 500.00 µM) | SMILES | other results
1 | 96.66 | 98.78 | 101.13 | 92.82 | 204 ± 37.3 µM | 91.27 | 99.61 | 312 ± 67.1 µM | – | – | – | – | – | – | – | – | – | – | – | – | Cc1cc(=O)[nH]c(-n2nc(C)c(CCC(=O)NCc3c[nH]nn3)c2C)n1 [693+787 Linker 1] | remaining activity (%) (MMP-2; concentration 9.75 µM): 86.30; remaining activity (%) (MMP-2; concentration 48.76 µM): 75.55; remaining activity (%) (MMP-2; concentration 243.80 µM): 47.37; remaining activity (%) (MMP-2; concentration 1219.00 µM): 8.68; remaining enzyme activity (% of control) (MMP-9; concentration 0.39 µM): 99.91; remaining enzyme activity (% of control) (MMP-9; concentration 9.75 µM): 100.27; remaining enzyme activity (% of control) (MMP-9; concentration 48.76 µM): 85.00; remaining enzyme activity (% of control) (MMP-9; concentration 243.80 µM): 58.59; remaining enzyme activity (% of control) (MMP-9; concentration 1219.00 µM): 5.52
2 | 90.99 | 98.42 | 91.65 | 90.86 | 169 ± 32.6 µM | 100.71 | 86.03 | 250 ± 24.6 µM | – | – | – | – | – | – | – | – | – | – | – | – | Cc1cc(=O)[nH]c(-n2nc(C)c(CCC(=O)NCCCCCCCCNC(=O)CCC(=O)NCc3c[nH]nn3)c2C)n1 [693+787 Linker 4] | remaining activity (%) (MMP-2; concentration 9.75 µM): 84.93; remaining activity (%) (MMP-2; concentration 48.76 µM): 72.64; remaining activity (%) (MMP-2; concentration 243.80 µM): 40.04; remaining activity (%) (MMP-2; concentration 1219.00 µM): 8.77; remaining enzyme activity (% of control) (MMP-9; concentration 0.39 µM): 80.60; remaining enzyme activity (% of control) (MMP-9; concentration 9.75 µM): 91.12; remaining enzyme activity (% of control) (MMP-9; concentration 48.76 µM): 86.75; remaining enzyme activity (% of control) (MMP-9; concentration 243.80 µM): 51.81; remaining enzyme activity (% of control) (MMP-9; concentration 1219.00 µM): 0.00
3 | 92.29 | 75.74 | 87.35 | 94.03 | 171 ± 12.6 µM | 96.44 | 96.19 | 230 ± 51.3 µM | – | – | – | – | – | – | – | – | – | – | – | – | Cc1cc(=O)[nH]c(-n2nc(C)c(CCC(=O)NCCOCCOCCNC(=O)CCC(=O)NCc3c[nH]nn3)c2C)n1 [693+787 Linker 10] | remaining activity (%) (MMP-2; concentration 9.75 µM): 78.88; remaining activity (%) (MMP-2; concentration 48.76 µM): 75.04; remaining activity (%) (MMP-2; concentration 243.80 µM): 39.80; remaining activity (%) (MMP-2; concentration 1219.00 µM): 7.43; remaining enzyme activity (% of control) (MMP-9; concentration 0.39 µM): 100.55; remaining enzyme activity (% of control) (MMP-9; concentration 9.75 µM): 93.95; remaining enzyme activity (% of control) (MMP-9; concentration 48.76 µM): 88.14; remaining enzyme activity (% of control) (MMP-9; concentration 243.80 µM): 47.49; remaining enzyme activity (% of control) (MMP-9; concentration 1219.00 µM): 12.51
4 | 88.74 | 98.28 | 98.89 | 81.72 | 149 ± 25.1 µM | 94.26 | 91.22 | 270 ± 31.4 µM | – | – | – | – | – | – | – | – | – | – | – | – | Cc1cc(=O)[nH]c(-n2nc(C)c(CCC(=O)NCCSCC(=O)NCc3c[nH]nn3)c2C)n1 [693+787 Linker 24] | remaining activity (%) (MMP-2; concentration 9.75 µM): 92.63; remaining activity (%) (MMP-2; concentration 48.76 µM): 69.73; remaining activity (%) (MMP-2; concentration 243.80 µM): 36.49; remaining activity (%) (MMP-2; concentration 1219.00 µM): 2.36; remaining enzyme activity (% of control) (MMP-9; concentration 0.39 µM): 97.78; remaining enzyme activity (% of control) (MMP-9; concentration 9.75 µM): 96.92; remaining enzyme activity (% of control) (MMP-9; concentration 48.76 µM): 92.11; remaining enzyme activity (% of control) (MMP-9; concentration 243.80 µM): 57.21; remaining enzyme activity (% of control) (MMP-9; concentration 1219.00 µM): 9.75

Second part, the compound before the results:

Row | SMILES | remaining activity (%) (MMP-2; concentration 0.0156 µM) | remaining activity (%) (MMP-2; concentration 0.08 µM) | remaining activity (%) (MMP-2; concentration 0.39 µM) | remaining activity (%) (MMP-2; concentration 1.95 µM) | IC50 (MMP-2) | remaining enzyme activity (% of control) (MMP-9; concentration 0.08 µM) | remaining enzyme activity (% of control) (MMP-9; concentration 1.95 µM) | IC50 (MMP-9) | remaining activity (%) (MMP-2; concentration 0.12 µM) | remaining activity (%) (MMP-2; concentration 0.49 µM) | remaining activity (%) (MMP-2; concentration 7.81 µM) | remaining activity (%) (MMP-2; concentration 31.25 µM) | remaining activity (%) (MMP-2; concentration 125.00 µM) | remaining activity (%) (MMP-2; concentration 500.00 µM) | remaining enzyme activity (% of control) (MMP-9; concentration 0.12 µM) | remaining enzyme activity (% of control) (MMP-9; concentration 0.49 µM) | remaining enzyme activity (% of control) (MMP-9; concentration 7.81 µM) | remaining enzyme activity (% of control) (MMP-9; concentration 31.25 µM) | remaining enzyme activity (% of control) (MMP-9; concentration 125.00 µM) | remaining enzyme activity (% of control) (MMP-9; concentration 500.00 µM) | other results
5 | Cc1cc(=O)[nH]c(-n2nc(C)c(CCC(=O)NCCNC(=O)c3cnc4c(c3)nc(O)n4C)c2C)n1 [693+826 Linker 1] | – | – | – | 97.44 | – | – | 98.21 | – | 100.61 | 101.27 | 105.49 | 103.49 | 92.36 | 84.19 | 100.10 | 107.84 | 95.90 | 93.30 | 76.07 | 54.11 | –
6 | Cc1cc(=O)[nH]c(-n2nc(C)c(CCC(=O)NCCCCCCCCNC(=O)c3cnc4c(c3)nc(O)n4C)c2C)n1 [693+826 Linker 4] | – | – | – | 95.29 | – | – | 96.18 | – | 91.52 | 100.66 | 98.79 | 92.06 | 94.34 | 70.32 | 100.31 | 99.68 | 93.00 | 90.00 | 80.00 | 69.08 | –
7 | Cc1cc(=O)[nH]c(-n2nc(C)c(CCC(=O)NCCOCCOCCNC(=O)c3cnc4c(c3)nc(O)n4C)c2C)n1 [693+826 Linker 10] | – | – | – | 91.10 | – | – | 89.00 | – | 88.40 | 91.73 | 90.16 | 89.04 | 84.64 | 68.06 | 93.04 | 87.11 | 87.83 | 75.00 | 69.92 | 55.88 | –
8 | Cc1cc(=O)[nH]c(-n2nc(C)c(CCC(=O)NCCNC(=O)CC(=O)C=CCCCCNC(=O)c3cnc4c(c3)nc(O)n4C)c2C)n1 [693+826 Linker 12] | – | – | – | 90.36 | 210 ± 35.3 µM | – | 83.12 | 58.9 ± 10.5 µM | 103.13 | 90.37 | 93.51 | 77.90 | 65.75 | 29.31 | 100.00 | 80.27 | 88.09 | 65.00 | 27.22 | 12.87 | –
9 | Cc1cc(=O)[nH]c(-n2nc(C)c(CCC(=O)NCCSCC(=O)NCCNC(=O)c3cnc4c(c3)nc(O)n4C)c2C)n1 [693+826 Linker 24] | – | – | – | 93.80 | 417 ± 50.3 µM | – | 94.32 | 358 ± 114 µM | 98.54 | 94.49 | 81.11 | 77.57 | 58.31 | 52.30 | 99.26 | 96.54 | 95.86 | 95.02 | 70.00 | 41.34 | –
10 | Cc1cc(=O)[nH]c(-n2nc(C)c(CCC(=O)NCCNC(=O)c3cncc(O)c3)c2C)n1 [693+828 Linker 1] | – | 86.73 | – | – | 110 ± 13.3 µM | 98.15 | – | 232 ± 35.2 µM | – | – | – | – | – | – | – | – | – | – | – | – | remaining activity (%) (MMP-2; concentration 0.0153 µM): 92.49; remaining activity (%) (MMP-2; concentration 0.38 µM): 90.73; remaining activity (%) (MMP-2; concentration 1.91 µM): 83.36; remaining activity (%) (MMP-2; concentration 9.54 µM): 76.57; remaining activity (%) (MMP-2; concentration 47.72 µM): 66.74; remaining activity (%) (MMP-2; concentration 238.60 µM): 28.54; remaining activity (%) (MMP-2; concentration 1193.00 µM): 3.05; remaining enzyme activity (% of control) (MMP-9; concentration 0.38 µM): 101.08; remaining enzyme activity (% of control) (MMP-9; concentration 1.91 µM): 93.24; remaining enzyme activity (% of control) (MMP-9; concentration 9.54 µM): 99.31; remaining enzyme activity (% of control) (MMP-9; concentration 47.72 µM): 78.04; remaining enzyme activity (% of control) (MMP-9; concentration 238.60 µM): 51.23; remaining enzyme activity (% of control) (MMP-9; concentration 1193.00 µM): 4.04
